Source: ChEMBL document CHEMBL1124878, “Synthesis, phencyclidine-like pharmacology, and antiischemic potential of meta-substituted 1-(1-phenylcyclohexyl)-1,2,3,6-tetrahydropyridines” (J Med Chem, 1990)

How the values were obtained:
[1] = target: T1, Glutamate receptor ionotropic, NMDA 2C (Rattus norvegicus, UniProt Q00961); assay: Ability to displace [3H]TCP from PCP receptor in tissue homogenate preparation of fresh whole rat brain minus cerebellum.; format: tissue-based
[2] = target: T1, Glutamate receptor ionotropic, NMDA 2C; assay: Ability to displace [3H]- TCP from PCP receptor in tissue homogenate preparation of fresh whole rat brain minus cerebellum.; format: tissue-based

T1 sequence (Q00961 whole entry): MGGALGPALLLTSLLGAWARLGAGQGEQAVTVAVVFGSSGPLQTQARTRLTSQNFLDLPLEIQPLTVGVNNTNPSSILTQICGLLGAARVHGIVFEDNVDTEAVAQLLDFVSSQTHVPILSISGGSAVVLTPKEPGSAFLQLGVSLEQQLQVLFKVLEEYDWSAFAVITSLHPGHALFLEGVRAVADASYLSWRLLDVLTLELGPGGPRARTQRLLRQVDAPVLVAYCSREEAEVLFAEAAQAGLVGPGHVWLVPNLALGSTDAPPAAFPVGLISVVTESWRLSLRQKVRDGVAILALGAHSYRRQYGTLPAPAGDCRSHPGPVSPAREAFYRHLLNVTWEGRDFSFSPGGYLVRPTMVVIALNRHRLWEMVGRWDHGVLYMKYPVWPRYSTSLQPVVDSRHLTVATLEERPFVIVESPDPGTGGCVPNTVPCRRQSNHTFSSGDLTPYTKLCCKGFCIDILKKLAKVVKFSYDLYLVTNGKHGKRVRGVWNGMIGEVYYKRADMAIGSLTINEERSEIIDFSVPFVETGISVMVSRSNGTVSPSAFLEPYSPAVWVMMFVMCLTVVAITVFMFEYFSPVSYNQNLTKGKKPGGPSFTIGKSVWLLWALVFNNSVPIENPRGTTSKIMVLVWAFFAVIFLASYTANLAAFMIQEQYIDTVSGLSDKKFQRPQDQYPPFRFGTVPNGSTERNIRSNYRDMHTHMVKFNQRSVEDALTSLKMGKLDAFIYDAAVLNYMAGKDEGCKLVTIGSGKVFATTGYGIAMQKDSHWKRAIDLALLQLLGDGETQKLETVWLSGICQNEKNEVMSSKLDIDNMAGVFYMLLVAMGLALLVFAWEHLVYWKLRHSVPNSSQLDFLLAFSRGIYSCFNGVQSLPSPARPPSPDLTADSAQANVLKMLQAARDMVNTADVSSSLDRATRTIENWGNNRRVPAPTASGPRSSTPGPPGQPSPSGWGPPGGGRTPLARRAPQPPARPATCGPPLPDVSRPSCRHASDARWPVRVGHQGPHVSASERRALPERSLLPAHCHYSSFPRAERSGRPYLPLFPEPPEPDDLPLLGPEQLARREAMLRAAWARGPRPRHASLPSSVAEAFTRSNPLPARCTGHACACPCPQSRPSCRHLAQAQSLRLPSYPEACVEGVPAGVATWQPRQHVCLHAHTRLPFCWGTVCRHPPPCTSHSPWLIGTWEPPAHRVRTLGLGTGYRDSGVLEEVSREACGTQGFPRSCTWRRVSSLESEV

SMILES	Ki [1] [nM]	Ki [2] [nM]
COc1cc(OC)cc(C2(N3CC=CCC3)CCCCC2)c1	8600	–
Fc1cccc(C2(N3CC=CCC3)CCCCC2)c1	–	281
C1=CCN(C2(c3cccc(C4OCCO4)c3)CCCCC2)CC1	601	–
Cc1cccc(C2(N3CC=CCC3)CCCCC2)c1	–	81
COCOc1cccc(C2(N3CC=CCC3)CCCCC2)c1	–	92
C1=CCN(C2(c3ccccc3)CCCCC2)CC1	–	37
C1=CCN(C2(c3cccs3)CCCCC2)CC1	12	–
C=Cc1cccc(C2(N3CC=CCC3)CCCCC2)c1	–	114
C1=CCN(C2(c3cccc(OCc4ccccc4)c3)CCCCC2)CC1	733	–
CSc1cccc(C2(N3CC=CCC3)CCCCC2)c1	–	231
COc1cccc(C2(N3CC=CCC3)CCCCC2)c1	33	–
FC(F)(F)c1cccc(C2(N3CC=CCC3)CCCCC2)c1	–	422
CC(=O)Oc1cccc(C2(N3CC=CCC3)CCCCC2)c1	–	6
O/N=C/c1cccc(C2(N3CC=CCC3)CCCCC2)c1	56	–
O=Cc1cccc(C2(N3CC=CCC3)CCCCC2)c1	–	324
Oc1cccc(C2(N3CC=CCC3)CCCCC2)c1	7	–
